Key:
[1] = test system: green foxtail; test: Test Example 4: herbicidal effect by soil treatment (Table 19, symbol G); type: in vivo, green foxtail (Setaria viridis); settings: AAH 320 g/ha
Procedure, shortened: (§1)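 Emulsion of test compound, water-diluted to predetermined amount, sprayed on soil after sowing (seed depth ~1.5 cm, sterilized diluvial soil). Greenhouse, 25–30° C. Effect graded at three weeks post-spray.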

[2] = test system: chickweed; test: Test Example 5: herbicidal effect by foliage application, plastic box (Table 20, symbol P); type: in vivo, common chickweed (Stellaria media); settings: foliage application, AAH 320 g/ha, three weeks after application
Procedure, shortened: (§2)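 Post-emergence foliar test in sterilized diluvial soil. Compound applied as water-diluted emulsion at a predetermined rate to 14-day-old plants; evaluation at three weeks.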

[3] = test system: wild oat; test: Test Example 5: herbicidal effect by foliage application, plastic box (Table 20, symbol I); type: in vivo, wild oat (Avena fatua); settings: foliage application, AAH 320 g/ha, three weeks after application
Procedure, shortened: as §2

[4] = test system: lambsquarters; test: Test Example 4: herbicidal effect by soil treatment (Table 19, symbol O); type: in vivo, lambsquarters (Chenopodium album); settings: AAH 320 g/ha
Procedure, shortened: as §1

[5] = test system: redroot pigweed; test: Test Example 5: herbicidal effect by foliage application, plastic box (Table 20, symbol N); type: in vivo, redroot pigweed (Amaranthus retroflexus); settings: foliage application, AAH 320 g/ha, three weeks after application
Procedure, shortened: as §2

[6] = test system: windgrass; test: Test Example 4: herbicidal effect by soil treatment (Table 19, symbol L); type: in vivo, windgrass (Apera spica-venti); settings: AAH 320 g/ha
Procedure, shortened: as §1

[7] = test system: southern crabgrass; test: Test Example 5: herbicidal effect by foliage application, plastic box (Table 20, symbol F); type: in vivo, southern crabgrass (Digitaria ciliaris); settings: foliage application, AAH 320 g/ha, three weeks after application
Procedure, shortened: as §2

[8] = test system: barnyard grass; test: Test Example 3: herbicidal effect by foliage application, Wagner pot (Table 18, symbol H); type: in vivo, barnyard grass (Echinochloa crus-galli); settings: 320 g/ha
Procedure, shortened: (§3)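 Plants were sown in alluvial soil held under 0.1–0.5 cm standing water and grown 14 days in a greenhouse at 25–30 °C. An emulsifiable formulation, water-diluted to the set dose, was then sprayed onto the foliage, and effects were scored three weeks later using previously defined criteria.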

[9] = test system: velvetleaf; test: Test Example 5: herbicidal effect by foliage application, plastic box (Table 20, symbol M); type: in vivo, velvetleaf (Abutilon theophrasti); settings: foliage application, AAH 320 g/ha, three weeks after application
Procedure, shortened: as §2

[10] = test system: Chinese sprangletop; test: Test Example 3: herbicidal effect by foliage application, Wagner pot (Table 18, symbol D); type: in vivo, chinese sprangletop (Leptochloa chinensis); settings: 320 g/ha
Procedure, shortened: as §3

[11] = test system: blackgrass; test: Test Example 5: herbicidal effect by foliage application, plastic box (Table 20, symbol J); type: in vivo, blackgrass (Alopecurus myosuroides); settings: foliage application, AAH 320 g/ha, three weeks after application
Procedure, shortened: as §2

[12] = test system: Italian ryegrass; test: Test Example 4: herbicidal effect by soil treatment (Table 19, symbol K); type: in vivo, Italian ryegrass (Lolium multiflorum); settings: AAH 320 g/ha
Procedure, shortened: as §1

[13] = test system: persian speedwell; test: Test Example 4: herbicidal effect by soil treatment (Table 19, symbol R); type: in vivo, Persian speedwell (Veronica persica); settings: AAH 320 g/ha
Procedure, shortened: as §1

[14] = test system: southern crabgrass; test: Test Example 4: herbicidal effect by soil treatment (Table 19, symbol F); type: in vivo, southern crabgrass (Digitaria ciliaris); settings: AAH 320 g/ha
Procedure, shortened: as §1

[15] = test system: green foxtail; test: Test Example 5: herbicidal effect by foliage application, plastic box (Table 20, symbol G); type: in vivo, green foxtail (Setaria viridis); settings: foliage application, AAH 320 g/ha, three weeks after application
Procedure, shortened: as §2

[16] = test system: chickweed; test: Test Example 4: herbicidal effect by soil treatment (Table 19, symbol P); type: in vivo, common chickweed (Stellaria media); settings: AAH 320 g/ha
Procedure, shortened: as §1

[17] = test system: lambsquarters; test: Test Example 5: herbicidal effect by foliage application, plastic box (Table 20, symbol O); type: in vivo, lambsquarters (Chenopodium album); settings: foliage application, AAH 320 g/ha, three weeks after application
Procedure, shortened: as §2

[18] = test system: barnyard grass; test: Test Example 5: herbicidal effect by foliage application, plastic box (Table 20, symbol H); type: in vivo, barnyard grass (Echinochloa crus-galli); settings: foliage application, AAH 320 g/ha, three weeks after application
Procedure, shortened: as §2

[19] = test system: windgrass; test: Test Example 5: herbicidal effect by foliage application, plastic box (Table 20, symbol L); type: in vivo, windgrass (Apera spica-venti); settings: foliage application, AAH 320 g/ha, three weeks after application
Procedure, shortened: as §2

[20] = test system: velvetleaf; test: Test Example 4: herbicidal effect by soil treatment (Table 19, symbol M); type: in vivo, velvetleaf (Abutilon theophrasti); settings: AAH 320 g/ha
Procedure, shortened: as §1

[21] = test system: rice flat sedge; test: Test Example 3: herbicidal effect by foliage application, Wagner pot (Table 18, symbol E); type: in vivo, rice flat sedge (Cyperus iria); settings: 320 g/ha
Procedure, shortened: as §3

[22] = test system: persian speedwell; test: Test Example 5: herbicidal effect by foliage application, plastic box (Table 20, symbol R); type: in vivo, Persian speedwell (Veronica persica); settings: foliage application, AAH 320 g/ha, three weeks after application
Procedure, shortened: as §2

[23] = test system: wild oat; test: Test Example 4: herbicidal effect by soil treatment (Table 19, symbol I); type: in vivo, wild oat (Avena fatua); settings: AAH 320 g/ha
Procedure, shortened: as §1

[24] = test system: Italian ryegrass; test: Test Example 5: herbicidal effect by foliage application, plastic box (Table 20, symbol K); type: in vivo, Italian ryegrass (Lolium multiflorum); settings: foliage application, AAH 320 g/ha, three weeks after application
Procedure, shortened: as §2

[25] = test system: barnyard grass; test: Test Example 4: herbicidal effect by soil treatment (Table 19, symbol H); type: in vivo, barnyard grass (Echinochloa crus-galli); settings: AAH 320 g/ha
Procedure, shortened: as §1

[26] = test system: blackgrass; test: Test Example 4: herbicidal effect by soil treatment (Table 19, symbol J); type: in vivo, blackgrass (Alopecurus myosuroides); settings: AAH 320 g/ha
Procedure, shortened: as §1

[27] = test system: redroot pigweed; test: Test Example 4: herbicidal effect by soil treatment (Table 19, symbol N); type: in vivo, redroot pigweed (Amaranthus retroflexus); settings: AAH 320 g/ha
Procedure, shortened: as §1

`CCCC(=O)Oc1c(OC)nn(C)c(=O)c1-c1c(-c2cc(Cl)ccc2OC)sc2ccccc12` [1-179] was tested, and the “G: green foxtail, herbicidal effect rating” value [1] was 0 (Herbicidal rate of 5% or less (almost no effect)), the “P: chickweed, herbicidal effect” value [2] was 4 (Herbicidal rate of 70% or more and less than 90%) and the “I: wild oat, herbicidal effect” value [3] was 3 (Herbicidal rate of 40% or more and less than 70%). The “O: lambsquarters, herbicidal effect rating” value [4] was 0 (Herbicidal rate of 5% or less (almost no effect)), the “N: redroot pigweed, herbicidal effect” value [5] was 4 (Herbicidal rate of 70% or more and less than 90%) and the “L: windgrass, herbicidal effect rating” value [6] was 0 (Herbicidal rate of 5% or less (almost no effect)). The “F: southern crabgrass, herbicidal effect” value [7] was 3 (Herbicidal rate of 40% or more and less than 70%), the “herbicidal effect on H (barnyard grass), rating 0-5” value [8] was 4 (Herbicidal rate of 70% or more and less than 90%) and the “M: velvetleaf, herbicidal effect” value [9] was 2 (Herbicidal rate of 20% or more and less than 40%). The “herbicidal effect on D (Chinese sprangletop), rating 0-5” value [10] was 0 (Herbicidal rate of 5% or less (almost no effect)), the “J: blackgrass, herbicidal effect” value [11] was 0 (Herbicidal rate of 5% or less (almost no effect)) and the “K: Italian ryegrass, herbicidal effect rating” value [12] was 0 (Herbicidal rate of 5% or less (almost no effect)). For the same molecule, the “R: persian speedwell, herbicidal effect rating” value [13] was 4 (Herbicidal rate of 70% or more and less than 90%), the “F: southern crabgrass, herbicidal effect rating” value [14] was 0 (Herbicidal rate of 5% or less (almost no effect)) and the “G: green foxtail, herbicidal effect” value [15] was 3 (Herbicidal rate of 40% or more and less than 70%). The “P: chickweed, herbicidal effect rating” value [16] was 4 (Herbicidal rate of 70% or more and less than 90%), the “O: lambsquarters, herbicidal effect” value [17] was 3 (Herbicidal rate of 40% or more and less than 70%) and the “H: barnyard grass, herbicidal effect” value [18] was 3 (Herbicidal rate of 40% or more and less than 70%). For the same molecule, the “L: windgrass, herbicidal effect” value [19] was 1 (Herbicidal rate of 5% or more and less than 20%), the “M: velvetleaf, herbicidal effect rating” value [20] was 0 (Herbicidal rate of 5% or less (almost no effect)) and the “herbicidal effect on E (rice flat sedge), rating 0-5” value [21] was 3 (Herbicidal rate of 40% or more and less than 70%). The “R: persian speedwell, herbicidal effect” value [22] was 4 (Herbicidal rate of 70% or more and less than 90%), the “I: wild oat, herbicidal effect rating” value [23] was 0 (Herbicidal rate of 5% or less (almost no effect)) and the “K: Italian ryegrass, herbicidal effect” value [24] was 0 (Herbicidal rate of 5% or less (almost no effect)). For the same molecule, the “H: barnyard grass, herbicidal effect rating” value [25] was 0 (Herbicidal rate of 5% or less (almost no effect)), the “J: blackgrass, herbicidal effect rating” value [26] was 0 (Herbicidal rate of 5% or less (almost no effect)) and the “N: redroot pigweed, herbicidal effect rating” value [27] was 3 (Herbicidal rate of 40% or more and less than 70%).

Reference: patent US20230085307A1, “PYRIDAZINONE COMPOUND AND HERBICIDE” (NISSAN CHEMICAL CORPORATION, priority 2019, published 2023)
